From US5834472A (Schering Corporation, priority 1997, dated 1998)

What was measured:
[1] = system: Candida; details: aqueous suspensions; cited from earlier work
[2] = system: Cryptococcus; details: aqueous suspensions; cited from earlier work
[3] = system: Aspergillis; details: aqueous suspensions; cited from earlier work
[4] = water solubility; assay type: physicochemical

CCC(C(C)O)n1ncn(-c2ccc(N3CCN(c4ccc(OCC5COC(Cn6cncn6)(c6ccc(F)cc6F)C5)cc4)CC3)cc2)c1=O (single isomer, unassigned; (-)) [antifungal compound]
antifungal activity against Candida [1]: potent antifungal activity
antifungal activity against Cryptococcus [2]: potent antifungal activity
antifungal activity against Aspergillis [3]: potent antifungal activity
water solubility [4]: extremely low water solubility
